# Test results as given in ChEMBL document CHEMBL1201862, “PubChem BioAssay data set” (2004).
#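 Each compound was tested at five concentrations against cells in 96-well plates for 48 hours. GI50 marks 50% less growth.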 The source made the active and inactive calls. Cut-off read from the data, not from the text of the source: active = GI50 up to about 1.1 µM and inactive = higher.
# What was measured:
# Assay in all cases: growth of human tumour cells (NCI), 48 h
# [1] = system: SW-620
# [2] = system: SF-295
# [3] = system: BT-549
# [4] = system: MCF7
# [5] = system: HCT-15
# [6] = system: UACC-257
# [7] = system: OVCAR-4
# [8] = system: SN12C
# [9] = system: SK-OV-3
# [10] = system: NCI-H460
# [11] = system: UO-31
# [12] = system: SK-MEL-28
# [13] = system: K562
# [14] = system: SF-539
# [15] = system: HOP-62
# [16] = system: A498
# [17] = system: SNB-75
# [18] = system: NCI-H522
# [19] = system: T47D
Compound,GI50 [1],GI50 [2],GI50 [3],GI50 [4],GI50 [5] [µM],GI50 [6],GI50 [7],GI50 [8],GI50 [9],GI50 [10],GI50 [11],GI50 [12],GI50 [13],GI50 [14],GI50 [15],GI50 [16],GI50 [17],GI50 [18],GI50 [19]
CCOC(=O)/C(=C\NCC(O)c1ccccc1)c1nc2ccccc2[nH]1 (configuration not stated),31.4 µM (inactive),24.8 µM (inactive),29.9 µM (inactive),18.7 µM (inactive),21.6,19.6 µM (inactive),23.8 µM (inactive),31.9 µM (inactive),31.8 µM (inactive),17.2 µM (inactive),0.103 µM (active),17.2 µM (inactive),19.8 µM (inactive),21.1 µM (inactive),43.5 µM (inactive),20.1 µM (inactive),24.2 µM (inactive),17.5 µM (inactive),
O=[N+]([O-])c1cc(/C=N/NS(=O)(=O)c2ccc(F)cc2)c(O)c([N+](=O)[O-])c1,41.3 µM (inactive),52.8 µM (inactive),,,26.5,42.3 µM (inactive),58.1 µM (inactive),33.7 µM (inactive),30.1 µM (inactive),28.8 µM (inactive),> 100 µM (inactive),82.8 µM (inactive),41.2 µM (inactive),22 µM (inactive),43.2 µM (inactive),29.9 µM (inactive),25.9 µM (inactive),21.2 µM (inactive),
Cc1cc(-c2nc3ccc(F)cc3s2)ccc1N,> 100 µM (inactive),> 100 µM (inactive),> 100 µM (inactive),< 0.01 µM (active),> 100,> 100 µM (inactive),,> 100 µM (inactive),,,> 100 µM (inactive),> 100 µM (inactive),> 100 µM (inactive),43.5 µM (inactive),> 100 µM (inactive),2.55 µM (inactive),> 100 µM (inactive),21.5 µM (inactive),
CC1CCC/C1=C(/I)C(=O)c1ccccc1 (configuration not stated),53.1 µM (inactive),27 µM (inactive),,,> 100,89.9 µM (inactive),85.7 µM (inactive),> 100 µM (inactive),> 100 µM (inactive),> 100 µM (inactive),> 100 µM (inactive),> 100 µM (inactive),34.4 µM (inactive),> 100 µM (inactive),> 100 µM (inactive),,16.1 µM (inactive),41.7 µM (inactive),> 100 µM (inactive)
CC1(C)CC(=O)c2c(nc3c(ccc4ccccc43)c2-c2ccc(NC(=O)CCCCC(=O)Nc3ccc(-c4c5c(nc6c4ccc4ccccc46)CC(C)(C)CC5=O)cc3)cc2)C1,38.6 µM (inactive),19.6 µM (inactive),,32.2 µM (inactive),27.7,39.2 µM (inactive),,33.1 µM (inactive),37.2 µM (inactive),27.7 µM (inactive),19.5 µM (inactive),34 µM (inactive),30.8 µM (inactive),20.6 µM (inactive),32.7 µM (inactive),,16.3 µM (inactive),29.5 µM (inactive),22.6 µM (inactive)
CCCC/N=C(/c1ccccc1)N1CCOCC1,> 100 µM (inactive),> 100 µM (inactive),> 100 µM (inactive),> 100 µM (inactive),> 100,> 100 µM (inactive),,> 100 µM (inactive),> 100 µM (inactive),> 100 µM (inactive),97.7 µM (inactive),> 100 µM (inactive),> 100 µM (inactive),> 100 µM (inactive),> 100 µM (inactive),> 100 µM (inactive),1.25 µM (inactive),,
c1ccc(SC(Sc2ccccc2)=C2CCC2)cc1,> 100 µM (inactive),> 100 µM (inactive),,,> 100,> 100 µM (inactive),> 100 µM (inactive),> 100 µM (inactive),> 100 µM (inactive),> 100 µM (inactive),> 100 µM (inactive),> 100 µM (inactive),> 100 µM (inactive),> 100 µM (inactive),> 100 µM (inactive),> 100 µM (inactive),98.4 µM (inactive),> 100 µM (inactive),
C=C(Br)C(Br)(CCl)CCC(Cl)C(C)C.C=C(Cl)C(Br)(CCl)CCC(Cl)C(C)C (configuration not stated),1.53 µM (inactive),6.92 µM (inactive),1.7 µM (inactive),1.94 µM (inactive),,1.67 µM (inactive),1.94 µM (inactive),1.66 µM (inactive),2.3 µM (inactive),1.57 µM (inactive),1.63 µM (inactive),1.77 µM (inactive),0.684 µM (active),1.94 µM (inactive),2.21 µM (inactive),17.7 µM (inactive),0.889 µM (active),1.35 µM (inactive),
CCC/C(Cl)=N\OC(=O)Nc1ccc(F)c([N+](=O)[O-])c1,4.8 µM (inactive),33.8 µM (inactive),10.2 µM (inactive),25.5 µM (inactive),16.9,17.3 µM (inactive),15.6 µM (inactive),27.2 µM (inactive),24.6 µM (inactive),12.5 µM (inactive),13.7 µM (inactive),18 µM (inactive),5.32 µM (inactive),24 µM (inactive),18.4 µM (inactive),21.5 µM (inactive),17.6 µM (inactive),1.79 µM (inactive),
COc1cc2c(cc1OC)C1CCc3ccccc3CN1CC2 (configuration not stated),> 100 µM (inactive),> 100 µM (inactive),,> 100 µM (inactive),> 100,> 100 µM (inactive),> 100 µM (inactive),> 100 µM (inactive),> 100 µM (inactive),> 100 µM (inactive),,> 100 µM (inactive),> 100 µM (inactive),> 100 µM (inactive),> 100 µM (inactive),> 100 µM (inactive),> 100 µM (inactive),> 100 µM (inactive),> 100 µM (inactive)
N#Cc1c(-c2ccccc2)cn(C(=O)c2ccccc2)c1N,> 100 µM (inactive),> 100 µM (inactive),,> 100 µM (inactive),> 100,,21.3 µM (inactive),> 100 µM (inactive),> 100 µM (inactive),,> 100 µM (inactive),> 100 µM (inactive),> 100 µM (inactive),,> 100 µM (inactive),,> 100 µM (inactive),> 100 µM (inactive),
CN(C)CCNC(=O)Cn1cnc2cccc([N+](=O)[O-])c2c1=O,> 100 µM (inactive),> 100 µM (inactive),,> 100 µM (inactive),> 100,> 100 µM (inactive),> 100 µM (inactive),> 100 µM (inactive),> 100 µM (inactive),> 100 µM (inactive),> 100 µM (inactive),> 100 µM (inactive),> 100 µM (inactive),> 100 µM (inactive),> 100 µM (inactive),> 100 µM (inactive),,> 100 µM (inactive),> 100 µM (inactive)
CC1(C)OP(=O)(O)CC1=O,> 100 µM (inactive),> 100 µM (inactive),,> 100 µM (inactive),> 100,> 100 µM (inactive),> 100 µM (inactive),> 100 µM (inactive),> 100 µM (inactive),> 100 µM (inactive),> 100 µM (inactive),> 100 µM (inactive),> 100 µM (inactive),> 100 µM (inactive),> 100 µM (inactive),> 100 µM (inactive),,> 100 µM (inactive),> 100 µM (inactive)
